US4613355A, “Antibiotic having herbicidal activity” (Satoshi Omura, priority 1983, dated 1986)
Where a name gives a salt, the structure may show the parent alone.

Key:
Assay type in all cases: in vivo
Picea densiflora = assay: Foliage treatment of woody plants (Example 10); design: key: 0 indicates no effect; 5 indicates complete kill; settings: Plant No. 22 Picea densiflora
Text: (§1) Aqueous solutions containing Phosalacine (Na salt) at different concentrations and 0.1% of octylphenylpolyoxy ethanol as surfactant were applied at a rate of 1500 liter per hectare to woody plants of about 60-70 cm in height. 7 and 14 days after the foliage treatment, damage to the plants was visually assessed on a scale of from 0 to 5 (cf. Example 7).

Castanea crenata = assay: Foliage treatment of woody plants (Example 10); design: key: 0 indicates no effect; 5 indicates complete kill; settings: Plant No. 8 Castanea crenata
Text: as §1

Larix leptolepis = assay: Foliage treatment of woody plants (Example 10); design: key: 0 indicates no effect; 5 indicates complete kill; settings: Plant No. 23 Larix leptolepis
Text: as §1

Imperata cyrindrica = assay: Foliage treatment (Example 8); design: key: 0 indicates no effect; 5 indicates complete kill; settings: Plant No. 15 Imperata cyrindrica
Method: (§2) Aqueous solutions of Phosalacine (Na salt) at different concentrations were applied at a rate of 1500 liters per hectare to naturally occurring plants or plants which were cultured on plates as shown in the following Table at certain stages of growth. […] One month after the foliage treatment, the inhibition of regrowth of the plants was visually investigated.

Raphanus sativus = assay: Foliage treatment (Example 8); design: key: 0 indicates no effect; 5 indicates complete kill; settings: Plant No. 32 Raphanus sativus
Method: as §2

Pleioblastus chino = assay: Foliage treatment (Example 8); design: key: 0 indicates no effect; 5 indicates complete kill; settings: Plant No. 11 Pleioblastus chino
Method: as §2

Triticum aestivum = assay: Foliage treatment (Example 8); design: key: 0 indicates no effect; 5 indicates complete kill; settings: Plant No. 26 Triticum aestivum
Method: as §2

Rumex obtusifolius = assay: Foliage treatment (Example 8); design: key: 0 indicates no effect; 5 indicates complete kill; settings: Plant No. 14 Rumex obtusifolius
Method: as §2

Oryzae sativa = assay: Foliage treatment (Example 8); design: key: 0 indicates no effect; 5 indicates complete kill; settings: Plant No. 25 Oryzae sativa
Method: as §2

Pueraria lobata = assay: Foliage treatment (Example 8); design: key: 0 indicates no effect; 5 indicates complete kill; settings: Plant No. 16 Pueraria lobata
Method: as §2

Helianthus tuberosus = assay: Foliage treatment (Example 8); design: key: 0 indicates no effect; 5 indicates complete kill; settings: Plant No. 12 Helianthus tuberosus
Method: as §2

Daucus carota = assay: Foliage treatment (Example 8); design: key: 0 indicates no effect; 5 indicates complete kill; settings: Plant No. 29 Daucus carota
Method: as §2

Digitaria adscendens = assay: Foliage treatment (Example 8); design: key: 0 indicates no effect; 5 indicates complete kill; settings: Plant No. 10 Digitaria adscendens
Method: as §2

Solanum melongena = assay: Foliage treatment (Example 8); design: key: 0 indicates no effect; 5 indicates complete kill; settings: Plant No. 31 Solanum melongena
Method: as §2

Cayratia japonica = assay: Foliage treatment (Example 8); design: key: 0 indicates no effect; 5 indicates complete kill; settings: Plant No. 13 Cayratia japonica
Method: as §2

Chamaecyparis obtusa = assay: Foliage treatment of woody plants (Example 10); design: key to damage to the plants, scale 0 to 5: 0 indicates no effect; 5 indicates complete kill; settings: CH Chamaecyparis obtusa
Text: as §1

Cryptomeria japonica = assay: Foliage treatment of woody plants (Example 10); design: key to damage to the plants, scale 0 to 5: 0 indicates no effect; 5 indicates complete kill; settings: CP Cryptomeria japonica
Text: as §1

CC(C)C[C@H](NC(=O)[C@H](C)NC(=O)[C@@H](N)CCP(C)(=O)O)C(=O)O [Phosalacine (Na salt)]
damage to the plants, scale 0 to 5 (Picea densiflora; 0.125%, 7 days): 4
damage to the plants, scale 0 to 5 (Picea densiflora; 0.125%, 14 days): 5
damage to the plants, scale 0 to 5 (Picea densiflora; 0.25%, 7 days): 4
damage to the plants, scale 0 to 5 (Picea densiflora; 0.25%, 14 days): 5
damage to the plants, scale 0 to 5 (Picea densiflora; 0.5%, 7 days): 4
damage to the plants, scale 0 to 5 (Picea densiflora; 0.5%, 14 days): 5
damage to the plants, scale 0 to 5 (Castanea crenata; 0.125%, 7 days): 5
damage to the plants, scale 0 to 5 (Castanea crenata; 0.125%, 14 days): 5
damage to the plants, scale 0 to 5 (Castanea crenata; 0.25%, 7 days): 5
damage to the plants, scale 0 to 5 (Castanea crenata; 0.25%, 14 days): 5
damage to the plants, scale 0 to 5 (Castanea crenata; 0.5%, 7 days): 5
damage to the plants, scale 0 to 5 (Castanea crenata; 0.5%, 14 days): 5
damage to the plants, scale 0 to 5 (Larix leptolepis; 0.125%, 7 days): 4
damage to the plants, scale 0 to 5 (Larix leptolepis; 0.125%, 14 days): 5
damage to the plants, scale 0 to 5 (Larix leptolepis; 0.25%, 7 days): 4
damage to the plants, scale 0 to 5 (Larix leptolepis; 0.25%, 14 days): 5
damage to the plants, scale 0 to 5 (Larix leptolepis; 0.5%, 7 days): 4
damage to the plants, scale 0 to 5 (Larix leptolepis; 0.5%, 14 days): 5
damage to the plants, scale 0 to 5 (Imperata cyrindrica; 0.05%, 7 days): 3
damage to the plants, scale 0 to 5 (Imperata cyrindrica; 0.05%, 14 days): 4
damage to the plants, scale 0 to 5 (Imperata cyrindrica; 0.1%, 7 days): 5
damage to the plants, scale 0 to 5 (Imperata cyrindrica; 0.1%, 14 days): 5
damage to the plants, scale 0 to 5 (Raphanus sativus; 0.05%, 7 days): 3
damage to the plants, scale 0 to 5 (Raphanus sativus; 0.05%, 14 days): 4
damage to the plants, scale 0 to 5 (Raphanus sativus; 0.1%, 7 days): 5
damage to the plants, scale 0 to 5 (Raphanus sativus; 0.1%, 14 days): 5
damage to the plants, scale 0 to 5 (Pleioblastus chino; 0.05%, 7 days): 3
damage to the plants, scale 0 to 5 (Pleioblastus chino; 0.05%, 14 days): 4
damage to the plants, scale 0 to 5 (Pleioblastus chino; 0.1%, 7 days): 5
damage to the plants, scale 0 to 5 (Pleioblastus chino; 0.1%, 14 days): 5
damage to the plants, scale 0 to 5 (Triticum aestivum; 0.05%, 7 days): 3
damage to the plants, scale 0 to 5 (Triticum aestivum; 0.05%, 14 days): 4
damage to the plants, scale 0 to 5 (Triticum aestivum; 0.1%, 7 days): 5
damage to the plants, scale 0 to 5 (Triticum aestivum; 0.1%, 14 days): 5
damage to the plants, scale 0 to 5 (Rumex obtusifolius; 0.05%, 7 days): 3
damage to the plants, scale 0 to 5 (Rumex obtusifolius; 0.05%, 14 days): 4
damage to the plants, scale 0 to 5 (Rumex obtusifolius; 0.1%, 7 days): 5
damage to the plants, scale 0 to 5 (Rumex obtusifolius; 0.1%, 14 days): 5
damage to the plants, scale 0 to 5 (Oryzae sativa; 0.05%, 7 days): 3
damage to the plants, scale 0 to 5 (Oryzae sativa; 0.05%, 14 days): 4
damage to the plants, scale 0 to 5 (Oryzae sativa; 0.1%, 7 days): 5
damage to the plants, scale 0 to 5 (Oryzae sativa; 0.1%, 14 days): 5
damage to the plants, scale 0 to 5 (Pueraria lobata; 0.05%, 7 days): 3
damage to the plants, scale 0 to 5 (Pueraria lobata; 0.05%, 14 days): 4
damage to the plants, scale 0 to 5 (Pueraria lobata; 0.1%, 7 days): 5
damage to the plants, scale 0 to 5 (Pueraria lobata; 0.1%, 14 days): 5
damage to the plants, scale 0 to 5 (Helianthus tuberosus; 0.05%, 7 days): 3
damage to the plants, scale 0 to 5 (Helianthus tuberosus; 0.05%, 14 days): 4
damage to the plants, scale 0 to 5 (Helianthus tuberosus; 0.1%, 7 days): 5
damage to the plants, scale 0 to 5 (Helianthus tuberosus; 0.1%, 14 days): 5
damage to the plants, scale 0 to 5 (Daucus carota; 0.05%, 7 days): 3
damage to the plants, scale 0 to 5 (Daucus carota; 0.05%, 14 days): 4
damage to the plants, scale 0 to 5 (Daucus carota; 0.1%, 7 days): 5
damage to the plants, scale 0 to 5 (Daucus carota; 0.1%, 14 days): 5
damage to the plants, scale 0 to 5 (Digitaria adscendens; 0.05%, 7 days): 3
damage to the plants, scale 0 to 5 (Digitaria adscendens; 0.05%, 14 days): 4
damage to the plants, scale 0 to 5 (Digitaria adscendens; 0.1%, 7 days): 5
damage to the plants, scale 0 to 5 (Digitaria adscendens; 0.1%, 14 days): 5
damage to the plants, scale 0 to 5 (Solanum melongena; 0.05%, 7 days): 3
damage to the plants, scale 0 to 5 (Solanum melongena; 0.05%, 14 days): 5
damage to the plants, scale 0 to 5 (Solanum melongena; 0.1%, 7 days): 5
damage to the plants, scale 0 to 5 (Solanum melongena; 0.1%, 14 days): 5
damage to the plants, scale 0 to 5 (Cayratia japonica; 0.05%, 7 days): 3
damage to the plants, scale 0 to 5 (Cayratia japonica; 0.05%, 14 days): 4
damage to the plants, scale 0 to 5 (Cayratia japonica; 0.1%, 7 days): 5
damage to the plants, scale 0 to 5 (Cayratia japonica; 0.1%, 14 days): 5
damage to the plants, scale 0 to 5 (Chamaecyparis obtusa; 0.125%, 7 days): 0
damage to the plants, scale 0 to 5 (Chamaecyparis obtusa; 0.125%, 14 days): 0
damage to the plants, scale 0 to 5 (Chamaecyparis obtusa; 0.25%, 7 days): 0
damage to the plants, scale 0 to 5 (Chamaecyparis obtusa; 0.25%, 14 days): 0
damage to the plants, scale 0 to 5 (Chamaecyparis obtusa; 0.5%, 7 days): 0
damage to the plants, scale 0 to 5 (Chamaecyparis obtusa; 0.5%, 14 days): 0
damage to the plants, scale 0 to 5 (Cryptomeria japonica; 0.125%, 7 days): 0
damage to the plants, scale 0 to 5 (Cryptomeria japonica; 0.125%, 14 days): 0
damage to the plants, scale 0 to 5 (Cryptomeria japonica; 0.25%, 7 days): 0
damage to the plants, scale 0 to 5 (Cryptomeria japonica; 0.25%, 14 days): 1
damage to the plants, scale 0 to 5 (Cryptomeria japonica; 0.5%, 7 days): 0
damage to the plants, scale 0 to 5 (Cryptomeria japonica; 0.5%, 14 days): 2
